Experimental findings from patent publication US9895349B2, “N-phenyl-carboxamide derivatives and the use thereof as medicaments for the treatment of hepatitis B” (priority 2013, dated 2018) are described below.

What is called EC50 is the midpoint of the concentration-response curve.

Data set [1] relates to HBV. Kind of data set: Anti-HBV activity, HepG2.2.15 stable transfected cell line, HBV DNA from secreted virions by realtime PCR. In kind it is cell-based, Hepatitis B virus (HBV). To be noted: HepG2.2.15 cells, 6 days of treatment.
For data set [2], the system named is HBV. Kind of data set: Anti-HBV activity, HepG2.117 inducibly HBV producing cell line (Tet-off), intracellular HBV DNA by realtime PCR. In kind it is cell-based, Hepatitis B virus (HBV). To be noted: HepG2.117 cells, 3 days of treatment.
Data set [3] deals with HepG2 cells. As to the kind of experiment: Cytotoxicity in HepG2 cells, Resazurin assay. To be noted: read-out: HepG2 4 days CC50, 4 days incubation, Resazurin viability.
Data set [4] can be described thus: in vitro. To be noted: human.
Data set [5] in a line: Cytotoxicity in HepG2 cells, Resazurin assay. To be noted: human.
Setting [6] is: Hepatitis B virus, HepG2.2.15, 144 h.
The mark [7] stands for this setting: Hepatitis B virus, HepG2.117, 72 h.

For the compound `Cc1cc(NC(=O)C2CCN(S(=O)(=O)C(C)CC(C)C)C2)ccc1F` (mixture of isomers) [Compound 17], the EC50 in data set [1] and in data set [2] was 5.9 µM each time. Besides, the CC50 in data set [3] is above 25 µM.
Consider `Cc1cc(NC(=O)[C@H]2CCN(S(=O)(=O)C3CC3)C2)ccc1F` [Compound 5], for which the EC50 worked out at 9.1 µM in data set [1] and 2 µM in data set [2]. Besides, the CC50 in data set [3] is above 25 µM.
For the compound `Cc1cc(NC(=O)[C@H]2CCN(S(C)(=O)=O)C2)ccc1F` [Compound 4], the 50% effective concentration (EC50) was found to be 16.4 µM in data set [1] and 10.7 µM in data set [2]. For the same compound, the CC50 in data set [3] is above 25 µM.
The compound `Cc1cc(NC(=O)[C@H]2C[C@@H]3CC[C@H]2N3S(=O)(=O)CC(C)C)ccc1F` (racemic) [Compound 30, N-(4-fluoro-3-methyl-phenyl)-7-isobutylsulfonyl-7-azabicyclo[2.2.1]heptane-3-carboxamide] yielded a CC50 at 4 days in data set [4] above 25 µM. The EC50 in data set [1] (setting [6]) stood at 0.61 µM; in data set [2] (setting [7]), 4.7 µM.
In the case of `Cc1cc(NC(=O)C2CN(S(=O)(=O)NC(C)C)C3CC23)ccc1F` (single isomer, unassigned) [Compound 36b, N-(4-fluoro-3-methyl-phenyl)-2-(isopropylsulfamoyl)-2-azabicyclo[3.1.0]hexane-4-carboxamide], the EC50 was found to be 0.46 µM in data set [1] and 0.38 µM in data set [2]. Also, in data set [3], the CC50 was above 25 µM.
For `Cc1cc(NC(=O)[C@H]2CCN(C(=O)OC3COC3)C2)ccc1F` [Compound 20], the results for the EC50 in data set [1] and in data set [2] were 16.1 µM and 4 µM, respectively. In addition, the CC50 in data set [3] was above 25 µM.
For `CCC(CC)S(=O)(=O)N1CC[C@H](C(=O)Nc2ccc(F)c(C)c2)C1` [Compound 19], the EC50 turned out to be 8.4 µM in data set [1] and 2.9 µM in data set [2]. Besides, the CC50 in data set [3] is above 25 µM.
With `Cc1cc(NC(=O)C2(C)CCN(S(=O)(=O)CC(C)C)C2)ccc1F` (racemic) [Compound 29a, N-(4-fluoro-3-methyl-phenyl)-1-isobutylsulfonyl-3-methyl-pyrrolidine-3-carboxamide], the EC50 in data set [1] and in data set [2] was above 25 µM each time. In addition, the CC50 in data set [3] is above 25 µM.
As to `Cc1cc(NC(=O)C2(F)CCN(S(=O)(=O)N[C@H]3CCOC3)C2)ccc1F` (single isomer, unassigned) [Compound 42b], the EC50 turned out to be 3.25 µM in data set [1] and 1.69 µM in data set [2]. Further, in data set [3], the CC50 was above 25 µM.
The like results for `COCCS(=O)(=O)N1CC[C@H](C(=O)Nc2ccc(F)c(C)c2)C1` [Compound 14] were, in that order, 1.9 µM, 1.5 µM and above 25 µM.
As to `Cc1cc(NC(=O)C2CCN(S(=O)(=O)C3CCOC3)C2)ccc1F` (mixture of isomers) [Compound 12], the EC50 in data set [1] was 4.1 µM; in data set [2] it was 2.3 µM. In data set [3], the CC50 was above 25 µM.
For `Cc1cc(NC(=O)[C@H]2CCN(C(=O)OC(C)C)C2)ccc1F` [Compound 21], the EC50 in data set [1] came to 5.4 µM; in data set [2], 2.7 µM. Also, the CC50 in data set [3] is above 25 µM.
Turning to `Cc1cc(NC(=O)C2CCN(S(=O)(=O)C3CCS(=O)(=O)C3)C2)ccc1F` (mixture of isomers) [Compound 13], the EC50 in data set [1] stood at 4.6 µM; in data set [2], 3.4 µM. For the same compound, the CC50 in data set [3] is above 25 µM.
For the compound `Cc1cc(NC(=O)[C@H]2CCN(S(=O)(=O)C3CCCCC3)C2)ccc1F` [Compound 23], the EC50 came to 0.96 µM in data set [1] and 1.4 µM in data set [2]. Also, the CC50 in data set [3] is above 25 µM.
Regarding `COCC(C)S(=O)(=O)N1CCC(C(=O)Nc2ccc(F)c(C)c2)C1` (mixture of isomers) [Compound 18], the values for the EC50 in data set [1] and in data set [2] were 5.8 µM and 5.3 µM, respectively. Besides, the CC50 in data set [3] is above 25 µM.
Consider `Cc1cc(NC(=O)C2CCN(S(=O)(=O)C3CCCCC3O)C2)ccc1F` (mixture of isomers) [Compound 16], for which the results for the EC50 in data set [1] and in data set [2] were 3.5 µM and 2.5 µM, respectively. The CC50 in data set [3] was above 25 µM.
With `Cc1cc(NC(=O)C2CCN(S(=O)(=O)C3CS(=O)(=O)CC3O)C2)ccc1F` (mixture of isomers) [Compound 15], the EC50 was found to be 12.5 µM in data set [1] and 14.7 µM in data set [2]. The CC50 in data set [3] was above 25 µM.
Taken in the same sequence, the figures for `Cc1cc(NC(=O)C2(C)CCN(S(=O)(=O)CC(C)C)C2)ccc1F` (racemic) [Compound 29b, N-(4-fluoro-3-methyl-phenyl)-1-isobutylsulfonyl-3-methyl-pyrrolidine-3-carboxamide] were 18.3 µM, 6.9 µM and above 25 µM.
As to `COC(=O)N1CC[C@H](C(=O)Nc2ccc(F)c(C)c2)C1` [Compound 22], the concentration giving a half-maximal response (EC50) in data set [1] was 13.6 µM; in data set [2], 8.6 µM. Moreover, the CC50 in data set [3] is above 25 µM.
As to `Cc1cc(NC(=O)C2(F)CCN(S(=O)(=O)NC(C)C)C2)ccc1F` (racemic) [Compound 35b, 3-fluoro-N-(4-fluoro-3-methyl-phenyl)-1-(isopropylsulfamoyl)pyrrolidine-3-carboxamide], the EC50 in data set [1] and in data set [2] was above 5 µM each time. Also, in data set [3], the CC50 was above 25 µM.
As to `Cc1cc(NC(=O)[C@H]2CCN(S(=O)(=O)CC3CC3)C2)ccc1F` [Compound 8, (3S)-1-(cyclopropylmethylsulfonyl)-N-(4-fluoro-3-methyl-phenyl)pyrrolidine-3-carboxamide], the EC50 in data set [1] (setting [6]) is 0.58 µM; in data set [2] (setting [7]) it was 0.33 µM. The CC50 at 4 days in data set [5] is above 25 µM.
Take `Cc1cc(NC(=O)[C@H]2CCN(S(=O)(=O)NC3CC(=O)N(C)C3)C2)ccc1F` (stereo partly drawn) [Compound 50, (3S)—N-(4-fluoro-3-methyl-phenyl)-1-[(1-methyl-5-oxo-pyrrolidin-3-yl)sulfamoyl]pyrrolidine-3-carboxamide]: the EC50 in data set [1] (setting [6]) is 0.35 µM; in data set [2] (setting [7]), 0.46 µM. This compound also came in with a CC50 at 4 days in data set [5] above 25 µM.
`Cc1cc(NC(=O)[C@H]2CCN(S(=O)(=O)NC3(CCO)COC3)C2)ccc1F` [Compound 47, (3S)—N-(4-fluoro-3-methyl-phenyl)-1-[[3-(2-hydroxyethyl)oxetan-3-yl]sulfamoyl]pyrrolidine-3-carboxamide]: the EC50 in data set [1] (setting [6]) was 0.065 µM; in data set [2] (setting [7]), 0.091 µM. In addition, in data set [5], the CC50 at 4 days was above 25 µM.
Regarding `Cc1cc(NC(=O)[C@H]2CCN(S(=O)(=O)N[C@H]3CCOC3)C2)ccc1F` [Compound 33, (3S)—N-(4-fluoro-3-methyl-phenyl)-1-[[(3S)-tetrahydrofuran-3-yl]sulfamoyl]pyrrolidine-3-carboxamide], the values for the EC50 in data set [1] (setting [6]) and in data set [2] (setting [7]) were 0.15 µM and 0.075 µM, respectively. Further, the CC50 at 4 days in data set [5] was above 25 µM.
As for `Cc1cc(NC(=O)[C@H]2CCN(S(=O)(=O)C(C)C)C2)ccc1F` [Compound 7], the EC50 in data set [1] came to 13.5 µM; in data set [2] it was 4.7 µM. Also, the CC50 in data set [3] is above 25 µM.
As for `CCC(C)S(=O)(=O)N1CC[C@H](C(=O)Nc2ccc(F)c(C)c2)C1` (stereo partly drawn) [Compound 25, (3S)—N-(4-fluoro-3-methyl-phenyl)-1-sec-butylsulfonyl-pyrrolidine-3-carboxamide], the EC50 is 5.5 µM in data set [1] (setting [6]) and 0.43 µM in data set [2] (setting [7]). This compound yielded a CC50 at 4 days in data set [5] above 25 µM.
Regarding `Cc1cc(NC(=O)[C@H]2CCN(S(=O)(=O)CC(C)C)C2)ccc1F` [Compound 2, (3S)—N-(4-fluoro-3-methyl-phenyl)-1-isobutylsulfonyl-pyrrolidine-3-carboxamide], the EC50 in data set [1] (setting [6]) was 1.32 µM; in data set [2] (setting [7]), 0.31 µM. The CC50 at 4 days in data set [5] was above 25 µM.
